Results published in patent US20220306647A1, “NOVEL INDOLE-2-CARBOXAMIDES ACTIVE AGAINST THE HEPATITUS B VIRUS (HBV)” (AICURIS GMBH & CO. KG, priority 2019, published 2022).

What was measured:
HBV (HepAD38 cells) = experiment: HBV replication assay: determination of HBV DNA from the supernatants of HepAD38 cells; assay type: cell-based; conditions: Hepatitis B virus, 144 h, HBV DNA in HepAD38 supernatant at day 6, qPCR, read-out: Cell activity
Method: Determination of HBV DNA from the Supernatants of HepAD38 Cells
The anti-HBV activity was analysed in the stable transfected cell line HepAD38, which has been described to secrete high levels of HBV virion particles (Ladner et al., 1997). In brief, HepAD38 cells were cultured at 37° C. at 5% CO2 and 95% humidity in 200 μl maintenance medium, which was Dulbecco's modified Eagle's medium/Nutrient Mixture F-12 (Gibco, Karlsruhe), 10% fetal bovine serum (PAN Biotech Aidenbach) supplemented with 50 μg/ml penicillin/streptomycin (Gibco, Karlsruhe), 2 mM L-glutamine (PAN Biotech, Aidenbach), 400 μg/ml G418 (AppliChem, Darmstadt) and 0.3 μg/ml tetracycline. Cells were subcultured once a week in a 1:5 ratio, but were usually not passaged more than ten times. For the assay 60,000 cells were seeded in maintenance medium without any tetracycline into each well of a 96-well plate and treated with serial half-log dilutions of test compound. To minimize edge effects the outer 36 wells of the plate were not used but were filled with assay medium. On each assay plate six wells for the virus control (untreated HepAD38 cells) and six wells for the cell control (HepAD38 cells treated with 0.3 μg/ml tetracycline) were allocated, respectively. In addition, one plate set with reference inhibitors like BAY 41-4109, entecavir, and lamivudine instead of screening compounds were prepared in each experiment. In general, experiments were performed thrice in triplicates. At day 6 HBV DNA from 100 μl filtrated cell culture supernatant (AcroPrep Advance 96 Filter Plate, […] Supor membran, PALL GmbH, Dreieich) was automatically purified on the MagNa Pure LC instrument using the MagNA Pure 96 DNA and Viral NA Small Volume Kit (Roche Diagnostics, Mannheim) according to the instructions of the manufacturer. EC50 values were calculated from relative copy numbers of HBV DNA In brief, 5 μl of the 100 μl eluate containing HBV DNA were subjected to PCR LC480 Probes Master Kit (Roche) together with 1 μM antisense primer […], 0.5 μM sense primer […], 0.3 μM hybprobes […]-FL and LC640-[…]-PH (TIBMolBiol, Berlin) to a final volume of 12.5 μl. The PCR was performed on the Light Cycler 480 real time system (Roche Diagnostics, Mannheim) using the following protocol: Pre-incubation for 1 min at 95° C., amplification: 40 cycles×(10 sec at 95° C., 50 sec at 60° C., 1 sec at 70° C.), cooling for 10 sec at 40° C. Viral load was quantitated against known standards using HBV plasmid DNA of pCH-9/3091 (Nassal et al., 1990, Cell 63: 1357-1363) and the LightCycler 480 SW 1.5 software (Roche Diagnostics, Mannheim) and EC50 values were calculated using non-linear regression with GraphPad Prism 6 (GraphPad Software Inc., La Jolla, USA).

[1] = target: T1, HBV core protein (C-terminal truncated core protein, 149 amino acids of the N-terminal assembly domain, BODIPY-FL labelled) (UniProt P03146); experiment: Biochemical capsid assembly assay (fluorescence quenching); conditions: assembly started with NaCl, fluorescence read after 6 min, read-out: Assembly activity
T1 construct: fused on or other part: A single cysteine added after residue 149, at position 150; It carries the BODIPY-FL maleimide label
T1 sequence (P03146 whole entry, the tested form may be a part): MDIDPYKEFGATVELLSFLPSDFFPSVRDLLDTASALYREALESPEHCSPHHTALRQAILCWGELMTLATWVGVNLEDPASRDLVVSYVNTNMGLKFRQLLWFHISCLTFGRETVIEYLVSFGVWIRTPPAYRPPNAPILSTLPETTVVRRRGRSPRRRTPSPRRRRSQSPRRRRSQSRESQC
Method: The screening for assembly effector activity was done based on a fluorescence quenching assay published by Zlotnick et al. (2007). The C-terminal truncated core protein containing 149 amino acids of the N-terminal assembly domain fused to a unique cysteine residue at position 150 and was expressed in E. coli using the pET expression system (Merck Chemicals, Darmstadt). Purification of core dimer protein was performed using a sequence of size exclusion chromatography steps. In brief, the cell pellet from 1 L BL21 (DE3) Rosetta2 culture expressing the coding sequence of core protein cloned NdeI/XhoI into expression plasmid pET21b was treated for 1 h on ice with a native lysis buffer (Qproteome Bacterial Protein Prep Kit; Qiagen, Hilden). After a centrifugation step the supernatant was precipitated during 2 h stirring on ice with 0.23 g/ml of solid ammonium sulfate. Following further centrifugation the resulting pellet was resolved in buffer A (100 mM Tris, pH 7.5; 100 mM NaCl; 2 mM DTT) and was subsequently loaded onto a buffer A equilibrated CaptoCore 700 column (GE HealthCare, Frankfurt). The column flow through containing the assembled HBV capsid was dialyzed against buffer N (50 mM NaHCO3 pH 9.6; 5 mM DTT) before urea was added to a final concentration of 3M to dissociate the capsid into core dimers for 1.5 h on ice. The protein solution was then loaded onto a 1L Sephacryl S300 column. After elution with buffer N core dimer containing fractions were identified by SDS-PAGE and subsequently pooled and dialyzed against 50 mM HEPES pH 7.5; 5 mM DTT. To improve the assembly capacity of the purified core dimers a second round of assembly and disassembly starting with the addition of 5 M NaCl and including the size exclusion chromatography steps described above was performed. From the last chromatography step core dimer containing fractions were pooled and stored in aliquots at concentrations between 1.5 to 2.0 mg/ml at −80° C.
Immediately before labelling the core protein was reduced by adding freshly prepared DTT in a final concentration of 20 mM. After 40 min incubation on ice storage buffer and DTT was removed using a Sephadex G-25 column (GE HealthCare, Frankfurt) and 50 mM HEPES, pH 7.5. For labelling 1.6 mg/ml core protein was incubated at 4° C. and darkness overnight with BODIPY-FL maleimide (Invitrogen, Karlsruhe) in a final concentration of 1 mM. After labelling the free dye was removed by an additional desalting step using a Sephadex G-25 column. Labelled core dimers were stored in aliquots at 4° C. In the dimeric state the fluorescence signal of the labelled core protein is high and is quenched during the assembly of the core dimers to high molecular capsid structures. The screening assay was performed in black 384 well microtiter plates in a total assay volume of 10 μl using 50 mM HEPES pH 7.5 and 1.0 to 2.0 μM labelled core protein. Each screening compound was added in 8 different concentrations using a 0.5 log-unit serial dilution starting at a final concentration of 100 μM, 31.6 μM or 10 μM, In any case the DMSO concentration over the entire microtiter plate was 0.5%. The assembly reaction was started by the injection of NaCl to a final concentration of […] which induces the assembly process to approximately 25% of the maximal quenched signal. 6 min after starting the reaction the fluorescence signal was measured using a Clariostar plate reader (BMG Labtech, Ortenberg) with an excitation of 477 nm and an emission of 525 nm. As 100% and 0% assembly control HEPES buffer containing 2.5 M and 0 M NaCl was used. Experiments were performed thrice in triplicates. EC50 values were calculated by non-linear regression analysis using the Graph Pad Prism 6 software (GraphPad Software, La Jolla, USA).

Structure (SMILES)	EC50 (HBV (HepAD38 cells)) [µM]	IC50 [1] [µM]
O=C(c1cc2ccccc2[nH]1)N1CCc2onc(C(=O)N3CCCC34CC4)c2C1 [Example 1, 2-(3-{4-azaspiro[2.4]heptane-4-carbonyl}-4H,5H,6H,7H-[1,2]oxazolo[4,5-c]pyridine-5-carbonyl)-1H-indole]	1 to 10	
CN(C(=O)c1noc2c1CN(C(=O)c1cc3ccccc3[nH]1)CC2)C1(c2cocn2)CC1 [Example 2, 5-(1H-indole-2-carbonyl)-N-methyl-N-[1-(1,3-oxazol-4-yl)cyclopropyl]-4H,5H,6H,7H-[1,2]oxazolo[4,5-c]pyridine-3-carboxamide]	< 1	< 5
CCc1cc(F)cc2[nH]c(C(=O)N3CCc4onc(C(=O)N(C)C5(COC)CC5)c4C3)cc12 [Example 4, 5-(4-ethyl-6-fluoro-1H-indole-2-carbonyl)-N-[1-(methoxymethyl)cyclopropyl]-N-methyl-4H,5H,6H,7H-[1,2]oxazolo[4,5-c]pyridine-3-carboxamide]	< 1	< 5
COCC1(N(C)C(=O)c2noc3c2CN(C(=O)c2cc4c(Cl)cccc4[nH]2)CC3)CC1 [Example 5, 5-(4-chloro-1H-indole-2-carbonyl)-N-[1-(methoxymethyl)cyclopropyl]-N-methyl-4H,5H,6H,7H-[1,2]oxazolo[4,5-c]pyridine-3-carboxamide]	< 1	< 5
COCC1(N(C)C(=O)c2noc3c2CN(C(=O)c2cc4c(F)cc(F)cc4[nH]2)CC3)CC1 [Example 6, 5-(4,6-difluoro-1H-indole-2-carbonyl)-N-[1-(methoxymethyl)cyclopropyl]-N-methyl-4H,5H,6H,7H-[1,2]oxazolo[4,5-c]pyridine-3-carboxamide]	< 1	< 5
COCC1(N(C)C(=O)c2noc3c2CN(C(=O)c2cc4ccccc4[nH]2)CC3)CC1 [Example 7, 5-(1H-indole-2-carbonyl)-N-[1-(methoxymethyl)cyclopropyl]-N-methyl-4H,5H,6H,7H-[1,2]oxazolo[4,5-c]pyridine-3-carboxamide]	< 1	< 5
CN(C(=O)c1noc2c1CN(C(=O)c1cc3ccccc3[nH]1)CC2)C1(CO)CC1 [Example 8, N-[I1-(hydroxymethyl)cyclopropyl]-5-(1H-indole-2-carbonyl)-N-methyl-4H,5H,6H,7H-[1,2]oxazolo[4,5-c]pyridine-3-carboxamide]	< 1	< 5
CN(C(=O)c1noc2c1CN(C(=O)c1cc3ccccc3[nH]1)CC2)C1(COC(=O)c2ccccc2)CC1 [Example 9, {1-[N-methyl-5-(1H-indole-2-carbonyl)-4H,5H,6H,7H-[1,2]oxazolo[4,5-c]pyridine-3-amido]cyclopropyl}methyl benzoate]	< 1	
O=C(NC1CC1)c1noc2c1CN(C(=O)c1cc3ccccc3[nH]1)CC2 [Example 10, N-cyclopropyl-5-(1H-indole-2-carbonyl)-4H,5H,6H,7H-[1,2]oxazolo[4,5-c]pyridine-3-carboxamide]	< 100	< 5
CN(C(=O)c1noc2c1CN(C(=O)c1cc3ccccc3[nH]1)CC2)C1CC1 [Example 11, N-cyclopropyl-5-(1H-indole-2-carbonyl)-N-methyl-4H,5H,6H,7H-[1,2]oxazolo[4,5-c]pyridine-3-carboxamide]	< 100	< 5
CN(C(=O)c1cnn2c1CN(C(=O)c1cc3ccccc3[nH]1)CC2)C1(c2ccc(C(=O)O)cc2)CC1 [Example 12, 4-{1-[N-methyl-5-(1H-indole-2-carbonyl)-4H,5H,6H,7H-pyrazolo[1,5-a]pyrazine-3-amido]cyclopropyl}benzoic acid]	< 1	< 5
CN(C(=O)c1cnn2c1CN(C(=O)c1cc3ccccc3[nH]1)CC2)C1(c2cccc(C(=O)O)c2)CC1 [Example 13, 3-{1-[N-methyl-5-(1H-indole-2-carbonyl)-4H,5H,6H,7H-pyrazolo[1,5-a]pyrazine-3-amido]cyclopropyl}benzoic acid]	1 to 10	< 5
CN1C(=O)c2c3c(nn2CC12CC2)CCN(C(=O)c1cc2ccccc2[nH]1)C3 [Example 14, 12′-(1H-indole-2-carbonyl)-4′-methyl-4′,7′,8′,12′-tetraazaspiro[cyclopropane-1,5′-tricyclo[7.4.0.0^2′7]tridecane]-1′,8′-dien-3′-one]	< 1	< 5
CN1C(=O)c2c3c(nn2CC12CC2)CCN(C(=O)c1cc2cc(F)c(Cl)cc2[nH]1)C3 [Example 15, 12′-(6-chloro-5-fluoro-1H-indole-2-carbonyl)-4′-methyl-4′,7′,8′,12′-tetraazaspirol[cyclopropane-1,5′-tricyclo[7.4.0.0^2′7]tridecane]-1′,8′-dien-3′-one]	< 1	< 5
Cc1cccc2[nH]c(C(=O)N3CCc4nn5c(c4C3)C(=O)N(C)C3(CC3)C5)cc12 [Example 16, 4′-methyl-12′-(4-methyl-1H-indole-2-carbonyl)-4′,7′,8′,12′-tetraazaspiro[cyclopropane-1,5′-tricyclo[7.4.0.0^2′7]tridecane]-1′,8′-dien-3′-one]	< 1	< 5
O=C(c1cc2ccccc2[nH]1)N1CCc2onc(C(=O)N3CCC(F)(F)C3)c2C1 [Example 25, 2-[3-(3,3-difluoropyrrolidine-1-carbonyl)-4H,5H,6H,7H-[1,2]oxazolo[4,5-c]pyridine-5-carbonyl]-1H-indole]	1 to 10	
